Laboratory results taken from US8829199B2, “Aminopyrazole derivative” (Chugai Seiyaku Kabushiki Kaisha, priority 2009, dated 2014).

What was measured:
[1] = biological target: human FGFR3 enzyme (Homo sapiens (Human), UniProt P22607); assay: Inhibitory activity against the FGFR3 enzyme (phosphorylation of biotinylated peptide, time-resolved fluorescence)
From the text: Inhibitory Activity Against the FGFR3 Enzyme
(§1) Phosphorylated biotinylated peptides were detected by the time-resolved fluorescent measurement using a europium cryptate-linked anti-phophotyrosine antibody and a streptavidin to which XL665, a derivative of allophycocyanine, is linked.

[2] = biological target: human FGFR1 enzyme (Homo sapiens (Human), UniProt P11362); assay: Inhibitory activity against the FGFR1 enzyme (phosphorylation of biotinylated peptide, time-resolved fluorescence)
From the text: Inhibitory Activity Against the FGFR1 Enzyme
as §1

[3] = biological target: human FGFR2 enzyme (Homo sapiens (Human), UniProt P21802); assay: Inhibitory activity against the FGFR2 enzyme (phosphorylation of biotinylated peptide, time-resolved fluorescence)
Chain of human FGFR2 enzyme (P21802 22-821): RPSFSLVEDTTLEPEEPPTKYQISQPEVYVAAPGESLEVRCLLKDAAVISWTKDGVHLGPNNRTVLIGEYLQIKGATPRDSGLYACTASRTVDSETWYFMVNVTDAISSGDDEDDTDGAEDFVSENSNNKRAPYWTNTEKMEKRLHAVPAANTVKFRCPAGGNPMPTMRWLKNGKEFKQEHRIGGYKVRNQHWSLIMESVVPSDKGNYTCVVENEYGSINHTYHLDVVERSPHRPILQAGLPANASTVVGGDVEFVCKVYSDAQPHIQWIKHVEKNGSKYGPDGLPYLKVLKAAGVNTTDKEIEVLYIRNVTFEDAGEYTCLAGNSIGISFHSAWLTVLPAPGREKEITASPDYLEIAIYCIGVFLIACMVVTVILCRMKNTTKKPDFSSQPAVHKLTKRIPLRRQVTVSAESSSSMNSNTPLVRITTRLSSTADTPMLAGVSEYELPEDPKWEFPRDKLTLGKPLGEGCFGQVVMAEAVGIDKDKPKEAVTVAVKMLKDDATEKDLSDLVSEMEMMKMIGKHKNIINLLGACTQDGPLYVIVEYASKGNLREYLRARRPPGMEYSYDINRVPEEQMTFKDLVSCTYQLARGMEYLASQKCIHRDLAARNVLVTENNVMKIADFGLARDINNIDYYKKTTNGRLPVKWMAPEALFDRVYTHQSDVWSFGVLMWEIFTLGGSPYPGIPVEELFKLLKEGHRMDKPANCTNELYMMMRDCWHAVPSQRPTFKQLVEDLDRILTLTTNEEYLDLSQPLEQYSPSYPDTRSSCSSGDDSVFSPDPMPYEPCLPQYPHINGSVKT
From the text: as §1

Chain of human FGFR3 enzyme (P22607 23-806): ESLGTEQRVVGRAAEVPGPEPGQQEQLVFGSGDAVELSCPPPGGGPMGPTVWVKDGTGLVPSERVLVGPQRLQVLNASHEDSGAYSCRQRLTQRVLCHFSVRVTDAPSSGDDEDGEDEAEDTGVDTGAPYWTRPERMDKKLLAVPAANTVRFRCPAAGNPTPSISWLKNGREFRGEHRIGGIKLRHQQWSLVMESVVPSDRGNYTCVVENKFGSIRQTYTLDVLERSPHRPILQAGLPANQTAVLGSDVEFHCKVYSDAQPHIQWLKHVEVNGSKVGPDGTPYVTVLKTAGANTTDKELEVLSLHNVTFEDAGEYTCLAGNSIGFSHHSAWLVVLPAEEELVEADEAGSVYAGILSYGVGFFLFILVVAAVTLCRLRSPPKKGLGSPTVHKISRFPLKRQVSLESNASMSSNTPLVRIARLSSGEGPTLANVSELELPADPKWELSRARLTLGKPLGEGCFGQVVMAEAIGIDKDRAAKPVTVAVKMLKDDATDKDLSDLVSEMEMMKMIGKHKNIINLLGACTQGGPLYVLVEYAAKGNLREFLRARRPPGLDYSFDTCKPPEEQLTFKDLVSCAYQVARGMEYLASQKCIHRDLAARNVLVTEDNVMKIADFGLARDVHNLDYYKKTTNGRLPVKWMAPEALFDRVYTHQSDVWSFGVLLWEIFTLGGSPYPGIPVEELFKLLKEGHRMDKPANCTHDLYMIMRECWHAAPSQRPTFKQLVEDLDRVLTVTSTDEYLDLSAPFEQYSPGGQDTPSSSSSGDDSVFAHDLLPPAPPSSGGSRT
Chain of human FGFR1 enzyme (P11362 22-822): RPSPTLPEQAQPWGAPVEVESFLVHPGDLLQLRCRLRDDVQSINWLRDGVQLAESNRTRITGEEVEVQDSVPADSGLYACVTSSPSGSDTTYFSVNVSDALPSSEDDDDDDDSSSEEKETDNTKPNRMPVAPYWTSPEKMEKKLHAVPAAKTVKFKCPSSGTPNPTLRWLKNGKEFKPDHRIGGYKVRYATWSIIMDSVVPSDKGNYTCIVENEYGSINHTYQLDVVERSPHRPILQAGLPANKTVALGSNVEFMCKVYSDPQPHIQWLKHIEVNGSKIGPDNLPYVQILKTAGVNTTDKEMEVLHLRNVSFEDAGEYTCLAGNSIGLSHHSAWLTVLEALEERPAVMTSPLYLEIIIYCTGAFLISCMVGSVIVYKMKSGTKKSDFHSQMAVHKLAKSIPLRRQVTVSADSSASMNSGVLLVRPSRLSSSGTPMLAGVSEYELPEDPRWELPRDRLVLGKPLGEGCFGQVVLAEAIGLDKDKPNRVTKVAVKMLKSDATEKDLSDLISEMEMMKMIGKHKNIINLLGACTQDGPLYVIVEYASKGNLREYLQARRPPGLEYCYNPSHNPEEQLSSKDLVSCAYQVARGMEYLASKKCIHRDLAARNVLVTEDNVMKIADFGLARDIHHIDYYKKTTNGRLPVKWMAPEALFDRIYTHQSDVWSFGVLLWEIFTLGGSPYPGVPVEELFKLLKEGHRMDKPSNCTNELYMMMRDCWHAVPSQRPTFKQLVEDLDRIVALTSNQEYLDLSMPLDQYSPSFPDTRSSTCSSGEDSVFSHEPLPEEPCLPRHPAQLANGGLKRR

Structure (SMILES) | IC50 [1] | IC50 [2] | IC50 [3]
Cc1nc2cc(-n3ncc(C(=O)c4cc5cc6c(cc5[nH]4)OCO6)c3N)ccc2[nH]1 [Example 61, [5-amino-1-(2-methyl-1H-benzimidazol-5-yl)-1H-pyrazol-4-yl]-(5H-[1,3]dioxolo[4,5-f]indol-6-yl)-methanone] | ≤ 300 nM | – | –
Cc1nc2cc(-n3ncc(C(=O)c4cc5ccc(-c6ccnnc6)cc5[nH]4)c3N)ccc2[nH]1 [Example 89, [5-amino-1-(2-methyl-1H-benzimidazol-5-yl)-1H-pyrazol-4-yl]-(6-pyridazin-4-yl-1H-indol-2-yl)-methanone] | ≤ 300 nM | – | –
Cc1nc2cc(-n3ncc(C(=O)c4cc5ccc(-c6ccc(N7CCNCC7)nc6)cc5[nH]4)c3N)ccc2[nH]1 [Example 110, [5-amino-1-(2-methyl-1H-benzimidazol-5-yl)-1H-pyrazol-4-yl]-[6-(6-piperazin-1-yl-pyridin-3-yl)-1H-indol-2-yl]-methanone] | ≤ 300 nM | ≤ 300 nM | ≤ 300 nM
Cc1ccnc(-c2ccc3cc(C(=O)c4cnn(-c5ccc6[nH]c(C)nc6c5)c4N)[nH]c3c2)c1 [Example 32] | ≤ 300 nM | – | –
